Legend:
salmon sperm DNA = experiment: Counterscreen to detect DNA intercalators; assay type: binding; conditions: for DNA intercalation (competition with acridine orange): pilot screen hits at increasing concentrations; for Competition with acridine orange for DNA intercalation (acridine orange mP values): assay validation, increasing concentration, monensin up to 1uM
[1] = target: N-LANA peptide binding to nucleosomes (histones H2A/H2B) (Gallus gallus, UniProt P02263+P0C1H3); experiment: biochemical; set-up: species or system chicken; conditions: for Identified as hit in pilot screen (Z score < −2 for both replicates): pilot screen of known bioactives; for Scored positive for inhibition in HTS at ICCB-L/NSRB: 49,810 small molecules screened in duplicate, Z score
[2] = target: GST LANA1-23 binding to nucleosomes (Gallus gallus, UniProt P02263+P0C1H3); experiment: ELISA, inhibition of GST LANA1-23 binding to nucleosomes; set-up: species or system chicken; conditions: increasing concentrations of competitor or compound

Structure (SMILES)	DNA intercalation (competition with acridine orange) (salmon sperm DNA)	Confirmation of inhibitory activity by FP ([1]; pilot screen hits retested at increasing concentrations)	Identified as hit in pilot screen (Z score < −2 for both replicates) [1]	Scored positive for inhibition in HTS at ICCB-L/NSRB [1]	Inhibition of GST LANA1-23 binding to nucleosomes by ELISA [2]	IC50 [1]	Competition with acridine orange for DNA intercalation (acridine orange mP values) (salmon sperm DNA)	Inhibition of LANA 1-23 binding to nucleosomes ([1]; negative control for HTS)
CC[C@@]1(O)C(=O)OCc2c1cc1n(c2=O)Cc2cc3cc(O)ccc3nc2-1 [10-HCT, 10-hydroxycamptothecin]	inconsistently competed	could not be confirmed	identified					
COc1cccc2c1C(=O)c1c(O)c3c(c(O)c1C2=O)C[C@@](O)(C(C)=O)C[C@@H]3O[C@H]1C[C@H](N)[C@H](O)[C@H](C)O1 [daunorubicin]	scored positive for DNA intercalation		identified	scored positive				
COc1cccc2c1C(=O)c1c(O)c3c(c(O)c1C2=O)C[C@@](O)(C(=O)CO)C[C@@H]3O[C@H]1C[C@H](N)[C@H](O)[C@H](C)O1 [doxorubicin]	scored positive for DNA intercalation		identified	scored positive	inhibitory activity	< 25 µM		
CC[C@@]1([C@@H]2O[C@@H]([C@H]3O[C@@](O)(CO)[C@H](C)C[C@@H]3C)C[C@@H]2C)CC[C@H]([C@]2(C)CC[C@]3(C[C@H](O)[C@@H](C)[C@@H]([C@@H](C)[C@@H](OC)[C@H](C)C(=O)O)O3)O2)O1 [Monensin, monensin]							negligible effect	did not inhibit
CC[n+]1c(-c2ccccc2)c2cc(N)ccc2c2ccc(N)cc21 [EtBr, ethidium bromide]							reduced acridine orange mP values	
O=C1c2c(O)ccc(O)c2C(=O)c2c(NCCNCCO)ccc(NCCNCCO)c21 [MTX, mitoxantrone]	scored positive for DNA intercalation		identified	scored positive	inhibitory activity	< 25 µM	reduced acridine orange mP values	
CC[N+](C)(CC)CCC[n+]1c(-c2ccccc2)c2cc(N)ccc2c2ccc(N)cc21.[I-].[I-] [PI, propidium iodide]							reduced acridine orange mP values	
